Results published in patent publication US12403160B2, “Injection composition containing isolated mitochondria, and use thereof” (Paean Biotechnology Inc., priority 2020, dated 2025).

Key:
[1] = system: platelets isolated from pig whole blood; assay: Effect of storage solvent for mitochondria and antithrombotic agent on platelet aggregation; type: cell-based
Experimental: Pig whole blood was centrifuged at 300×g for 5 minutes to obtain a cloudy yellow supernatant containing platelets and plasma. […] The obtained platelet precipitate was replaced with an equal amount of Dulbecco's phosphate-buffered saline (DPBS) solution, washed by centrifugation at 1,500×g for 15 minutes, and resuspended in an equal amount of a fresh DPBS solution.
In order to confirm the effect of a storage solvent for mitochondria and an antithrombotic agent on inhibition of platelet aggregation, the mitochondria of human umbilical cord-derived mesenchymal stem cells (UC-hMSC) were isolated and stored in saline and SHE solution, which is a storage solvent, for one hour, respectively, and the resultant was treated with the platelets isolated from pig whole blood and then treated with heparin. After 1 hour, the result was confirmed with a confocal laser scanning microscope.

platelets in the blood = assay: Number of platelets in the blood after intravenous injection of mitochondria; type: in vivo, BALB/c-nu/nu mice; settings: UC-hMSC mitochondria 50 μg/0.3 mL, single intravenous injection, mice
Experimental: The specific experimental design, which was performed so as to confirm the effect of reducing the number of platelets during intravascular injection of mitochondria into mice, is as shown in Table 2 below.

platelets = system: platelets
Experimental: After treatment, the resultant was incubated with shaking at 100 rpm at 37° C. for one hour.

Row | Compound | inhibition of mitochondria-induced platelet aggregation with rising concentration of antithrombotic agent ([1]; UC-hMSC mitochondria stored in SHE solution) | inhibition of mitochondria-induced platelet aggregation by antithrombotic agent ([1]; UC-hMSC mitochondria stored in saline and SHE solution, pig platelets) | change in the number of platelets in the blood (platelets in the blood) | glycine concentration at which mitochondria-induced platelet aggregation is inhibited (platelets; 1 μg UC-hMSC mitochondria in 10 μL Tris-trehalose buffer with glycine 0-100 mM, 1 mL platelet solution, 37° C., one hour) | inhibition of mitochondria-induced platelet aggregation at low glycine concentration (platelets; low concentration of glycine in Tris-trehalose buffer)
1 | heparin | inhibited as the concentrations of heparin as an antithrombotic agent increased | partially inhibited | recovered to some extent, but the decrease in platelets was not completely inhibited | – | –
2 | NCC(=O)O [glycine] | – | – | – | ≥ 25 mM | could not inhibit platelet aggregation
